{
  "source": "paper PMC7687371",
  "about": "“Quantitative in Vitro to in Vivo Extrapolation (QIVIVE) for Predicting Reduced Anogenital Distance Produced by Anti-Androgenic Pesticides in a Rodent Model for Male Reproductive Disorders” (Environmental Health Perspectives, 2020)",
  "key": {"Wistar rats [1]": {"tested_on": "Wistar rats", "details": "rat, in vivo"}, "Sprague-Dawley rats [2]": {"tested_on": "Sprague-Dawley rats", "test": "In vivo Study 4 (dimethomorph follow-up), reproductive/developmental toxicity, AGD"}, "Sprague-Dawley rats [3]": {"tested_on": "Sprague-Dawley rats", "details": "male, rat, in vivo"}, "Wistar rats [4]": {"tested_on": "Wistar rats", "details": "male, rat, in vivo, 40 mg/kg/day", "experimental": "In total, four in vivo exposure studies were conducted with pesticide exposures to pregnant rats during gestation and lactation to the selected compound (Table 2). […] For one selected dose of each compound, the internal body concentrations in dams and fetuses were determined by cesarean section at GD21. Due to the study outcomes from the third study, we conducted a fourth follow-up study on dimethomorph (Study 4).\nPup weights and AGD were measured after birth at PD1 using a stereomicroscope with a micrometer eyepiece and were determined as the distance between the genital papilla and the anus. To discriminate between an anti-androgenic effect and stunted growth, the AGD index (AGDI) was calculated by dividing AGD by the cube root of the BW (as described by [Hass et al. 2007]). The estimation of AGDI effect doses by regression modeling required a standardized AGDI scale. Therefore, we normalized the AGDI values in relation to the dynamic range spanned by the mean AGDI of the male and the female controls as (38) normalized AGDI=mean(AGDI of male controls)−AGDI(exposed animal)/mean(AGDI of male controls)−mean(AGDI of female controls)."}, "androgen receptor (AR)": {"biological_target": "T1, androgen receptor (AR) (Homo sapiens, UniProt P10275)", "T1 construct": "host or cells: AR-EcoScreen cells", "T1 sequence (P10275 1-920)": "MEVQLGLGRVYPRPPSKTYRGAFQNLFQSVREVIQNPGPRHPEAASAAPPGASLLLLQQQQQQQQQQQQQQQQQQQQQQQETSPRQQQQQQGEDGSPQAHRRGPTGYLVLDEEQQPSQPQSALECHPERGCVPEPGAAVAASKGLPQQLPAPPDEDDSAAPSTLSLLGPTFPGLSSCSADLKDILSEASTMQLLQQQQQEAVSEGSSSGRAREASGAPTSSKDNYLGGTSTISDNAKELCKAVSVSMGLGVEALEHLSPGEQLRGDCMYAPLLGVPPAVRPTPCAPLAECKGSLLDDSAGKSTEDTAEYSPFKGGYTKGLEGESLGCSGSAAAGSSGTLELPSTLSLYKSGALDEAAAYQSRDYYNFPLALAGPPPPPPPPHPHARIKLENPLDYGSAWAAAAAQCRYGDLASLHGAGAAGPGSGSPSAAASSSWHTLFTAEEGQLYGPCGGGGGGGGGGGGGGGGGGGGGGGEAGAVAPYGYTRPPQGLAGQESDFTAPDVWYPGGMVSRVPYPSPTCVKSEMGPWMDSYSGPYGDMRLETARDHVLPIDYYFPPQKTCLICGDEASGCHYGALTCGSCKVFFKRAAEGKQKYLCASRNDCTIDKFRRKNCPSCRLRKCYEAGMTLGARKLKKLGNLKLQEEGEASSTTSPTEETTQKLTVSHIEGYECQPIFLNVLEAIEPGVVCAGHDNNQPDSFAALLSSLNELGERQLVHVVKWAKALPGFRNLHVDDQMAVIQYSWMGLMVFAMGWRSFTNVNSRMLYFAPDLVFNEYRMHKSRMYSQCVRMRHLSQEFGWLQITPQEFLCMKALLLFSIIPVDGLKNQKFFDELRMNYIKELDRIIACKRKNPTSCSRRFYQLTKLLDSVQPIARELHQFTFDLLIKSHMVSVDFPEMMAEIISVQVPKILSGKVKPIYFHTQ", "test": "AR-EcoScreen androgen receptor transcriptional activation assay (AR antagonism)", "format": "cell-based", "experimental": "Experiments were run with three technical replicates and repeated three times. The mean value of technical replicates represents one biological replicate. AR-EcoScreen™ cells (JCRB1328; Japanese Collection of Research Bioresources) were grown in CellBIND® surface cell culture flasks (Corning Inc.) in growth medium consisting of Gibco® Dulbecco’s Modified Eagle’s Medium/F-12 (DMEM/F-12) Nutrient Mixture with L-glutamine and 4-(2-hydroxyethyl)-1-piperazineethanesulfonic acid (HEPES) and without phenol red supplemented with 5% fetal bovine serum (FBS), 1% penicillin-streptomycin, 200μg/mL Zeocin™ selection reagent, and 100μg/mL Hygromycin B (all reagents from Invitrogen, Life Technologies). The cells were incubated at 37°C in a humidified atmosphere of 5% carbon dioxide ( CO2 ) and 95% air. On the day before the experiment, cells were plated in white 96-well plates (Corning Inc.) at a density of 9,000 cells/well in assay medium consisting of Gibco® DMEM/F-12 Nutrient Mixture medium, 1% penicillin-streptomycin, with 5% dextran-coated charcoal-treated FBS (all reagents from Invitrogen, Life Technologies). On the following day, the medium was changed to assay medium containing the known AR agonist R1881 (Perkin Elmer) in 2-fold serial dilutions from 0.008 to 1 nM or the known AR antagonist hydroxyflutamide (CASRN 52806-53-8, Toronto Research Chemicals) in 3-fold serial dilutions from […] together with 0.1 nM R1881. […] The DMSO vehicle concentrations were kept constant in all wells (0.1%). Following approximately 20 h of exposure to test compounds firefly luminescence was measured in a luminometer (LUMIstar® Galaxy, BMG LABTECH) using Dual-Glo® Luciferase Reagent from the Dual-Glo® Luciferase Assay System from Promega. Cell viability was measured by Renilla luminescence using Dual-Glo® Stop & Glo® Reagent from the Dual-Glo® Luciferase Assay System."}},
  "note": "Like-named read-outs stand apart in the source and are kept apart here. Marks after values point to notes of the source that are not given here.",
  "data": [
    {"molecule": "COc1ccc(C(=CC(=O)N2CCOCC2)c2ccc(Cl)cc2)cc1OC", "note": "[Dimethomorph, dimethomorph]", "values": [
      {"measurement": "Shortening of AGDI compared with male controls (normalized AGDI scale)", "setting": "Wistar rats [1]; male, Wistar (HanTac:WH)", "result": "around 10%"},
      {"measurement": "AGDI mean", "setting": "Wistar rats [1]; male, Wistar, 20 mg/kg", "result": 2.01},
      {"measurement": "AGDI reduction (%)", "setting": "Wistar rats [1]; male, Wistar, 20 mg/kg/day", "result": 13, "unit": "%"},
      {"measurement": "AGDI mean", "setting": "Wistar rats [1]; male, Wistar, 60 mg/kg", "result": 2.16},
      {"measurement": "Nipple retention at PD14, statistics in words", "setting": "Wistar rats [1]", "result": "no statistically significant effects on nipple retention"},
      {"measurement": "% perinatal loss", "setting": "Sprague-Dawley rats [2]; 20 mg/kg/bw", "result": "3.5 ± 6.3", "unit": "%"},
      {"measurement": "% postimplantation loss", "setting": "Sprague-Dawley rats [2]; 20 mg/kg/bw", "result": "2.6 ± 4.9", "unit": "%"},
      {"measurement": "% postnatal deaths", "setting": "Sprague-Dawley rats [2]; 20 mg/kg/bw", "result": "1.6 ± 3.7", "unit": "%"},
      {"measurement": "AGD females (mm)", "setting": "Sprague-Dawley rats [2]; 20 mg/kg/bw", "result": "2.0 ± 0.1", "unit": "mm"},
      {"measurement": "AGD females (units)", "setting": "Sprague-Dawley rats [2]; 20 mg/kg/bw", "result": "12.4 ± 0.8", "unit": "units"},
      {"measurement": "AGD index females", "setting": "Sprague-Dawley rats [2]; 20 mg/kg/bw", "result": "1.1 ± 0.1"},
      {"measurement": "AGD index males", "setting": "Sprague-Dawley rats [2]; 20 mg/kg/bw", "result": "1.94 ± 0.1"},
      {"measurement": "AGD males (mm)", "setting": "Sprague-Dawley rats [2]; 20 mg/kg/bw", "result": "3.74 ± 0.2", "unit": "mm"},
      {"measurement": "% perinatal loss", "setting": "Sprague-Dawley rats [2]; 60 mg/kg/bw", "result": "5.7 ± 6.0", "unit": "%"},
      {"measurement": "% postimplantation loss", "setting": "Sprague-Dawley rats [2]; 60 mg/kg/bw", "result": "4.3 ± 5.2", "unit": "%"},
      {"measurement": "% postnatal deaths", "setting": "Sprague-Dawley rats [2]; 60 mg/kg/bw", "result": "1.4 ± 3.1", "unit": "%"},
      {"measurement": "AGD females (mm)", "setting": "Sprague-Dawley rats [2]; 60 mg/kg/bw", "result": "1.9 ± 0.1", "unit": "mm"},
      {"measurement": "AGD females (units)", "setting": "Sprague-Dawley rats [2]; 60 mg/kg/bw", "result": "11.8 ± 0.6", "unit": "units"},
      {"measurement": "AGD index females", "setting": "Sprague-Dawley rats [2]; 60 mg/kg/bw", "result": "1.0 ± 0.0"},
      {"measurement": "AGD index males", "setting": "Sprague-Dawley rats [2]; 60 mg/kg/bw", "result": "1.87 ± 0.1"},
      {"measurement": "AGD males (mm)", "setting": "Sprague-Dawley rats [2]; 60 mg/kg/bw", "result": "3.51 ± 0.2", "unit": "mm"},
      {"measurement": "Maternal toxicity", "setting": "Sprague-Dawley rats [2]; 180 mg/kg per day, increased postimplantation and perinatal loss, higher postnatal death rate", "result": "indications for a mild maternal toxicity"},
      {"measurement": "% perinatal loss", "setting": "Sprague-Dawley rats [2]; 180 mg/kg/bw", "result": "13.3 ± 11.8", "unit": "%"},
      {"measurement": "% postimplantation loss", "setting": "Sprague-Dawley rats [2]; 180 mg/kg/bw", "result": "10.1 ± 12.6", "unit": "%"},
      {"measurement": "% postnatal deaths", "setting": "Sprague-Dawley rats [2]; 180 mg/kg/bw", "result": "3.2 ± 7.2", "unit": "%"},
      {"measurement": "AGD females (mm)", "setting": "Sprague-Dawley rats [2]; 180 mg/kg/bw", "result": "2.0 ± 0.2", "unit": "mm"},
      {"measurement": "AGD females (units)", "setting": "Sprague-Dawley rats [2]; 180 mg/kg/bw", "result": "12.1 ± 0.9", "unit": "units"},
      {"measurement": "AGD index females", "setting": "Sprague-Dawley rats [2]; 180 mg/kg/bw", "result": "1.1 ± 0.0"},
      {"measurement": "AGD index males", "setting": "Sprague-Dawley rats [2]; 180 mg/kg/bw", "result": "1.90 ± 0.11"},
      {"measurement": "AGD males (mm)", "setting": "Sprague-Dawley rats [2]; 180 mg/kg/bw", "result": "3.57 ± 0.2", "unit": "mm"},
      {"measurement": "AGDI mean", "setting": "Sprague-Dawley rats [3]; 20 mg/kg", "result": 1.95},
      {"measurement": "AGDI mean", "setting": "Sprague-Dawley rats [3]; 60 mg/kg", "result": 1.88},
      {"measurement": "AGDI mean", "setting": "Sprague-Dawley rats [3]; 180 mg/kg", "result": 1.91}
    ]},
    {"molecule": "CC12CC1(C)C(=O)N(c1cc(Cl)cc(Cl)c1)C2=O", "note": "(stereo not drawn) [Procymidone, procymidone, reference compound]", "values": [
      {"measurement": "AGDI reduction (%)", "setting": "Wistar rats [4]", "result": "34^d %"},
      {"measurement": "IC50", "setting": "androgen receptor (AR)", "result": 400, "unit": "nM"},
      {"measurement": "AR antagonism, in words", "setting": "androgen receptor (AR); reporter gene assay", "result": "antagonized the AR"}
    ]}
  ]
}
